From patent US10961215B2, “N-aryl and N-heteroaryl piperidine derivatives as liver X receptor beta agonists, compositions, and their use” (Merck Sharp & Dohme Corp., priority 2016, dated 2021) come the findings set out here.

Assay [1] deals with T1, GST tagged LXRalpha LBD (ligand binding domain) (Homo sapiens, UniProt Q13133).
T1 construct: purchased Invitrogen pv4655
T1 sequence (Q13133 209-447 limits assumed): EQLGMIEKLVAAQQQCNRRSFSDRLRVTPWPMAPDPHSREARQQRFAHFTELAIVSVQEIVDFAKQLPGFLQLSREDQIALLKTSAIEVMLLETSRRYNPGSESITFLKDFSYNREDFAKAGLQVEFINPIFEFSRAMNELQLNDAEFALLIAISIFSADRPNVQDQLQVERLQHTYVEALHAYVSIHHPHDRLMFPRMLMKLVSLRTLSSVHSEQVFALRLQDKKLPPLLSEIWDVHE
Put plainly: LanthaScreen TR-FRET Liver X Receptor Coactivator Assay, LXR alpha-LBD (co-activator recruitment; IP and % Emax relative to T0901317). The class given is biochemical. The following applies: for LXR alpha IP (nM) / EC50: Inflection Point of co-activator recruitment, LXR alpha-LBD, TR-FRET; for Emax / LXR alpha actiivty at max dose (%): efficacy at max dose in relation to reference T0901317, LXR alpha-LBD; for Emax: read-out: LXR alpha actiivty at max dose (%). The method, boiled down:
(§1)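 Readout is time-resolved FRET between a terbium anti-GST antibody bound to the tagged LBD and a fluorescein-labelled coactivator peptide recruited on ligand binding. Samples are incubated at room temperature before reading, and efficacy is expressed against T0901317.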

Assay [2] has as its target T2, GST tagged LXRbeta LBD (ligand binding domain) (Homo sapiens, UniProt P55055).
T2 construct: purchased Invitrogen pv4658.pps
T2 sequence (P55055 222-460 limits assumed): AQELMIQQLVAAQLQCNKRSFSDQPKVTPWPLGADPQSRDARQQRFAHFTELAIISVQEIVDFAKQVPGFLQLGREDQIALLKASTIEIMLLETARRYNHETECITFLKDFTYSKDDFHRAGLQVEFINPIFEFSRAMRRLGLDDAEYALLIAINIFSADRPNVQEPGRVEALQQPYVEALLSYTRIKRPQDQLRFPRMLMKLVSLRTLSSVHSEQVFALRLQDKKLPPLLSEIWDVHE
Put plainly: LanthaScreen TR-FRET Liver X Receptor Coactivator Assay, LXR beta-LBD (co-activator recruitment; IP and % Emax relative to T0901317). The following applies: for EC50: Inflection Point of co-activator recruitment, LXR beta-LBD, TR-FRET; for Emax / LXR beta actiivty at max dose (%): efficacy at max dose in relation to reference T0901317, LXR beta-LBD; for Emax: read-out: LXR beta actiivty at max dose (%). The class given is biochemical. The method, boiled down:
as §1

The structures appear in SMILES notation.

Take `CN(C)C(=O)c1ccc(N2CCC(CCCN(C)C(=O)[C@@](O)(c3cccc(C4CC4)c3)C(F)(F)F)CC2)nc1Cl` [Example 1-34, (S)-2-chloro-6-(4-(3-(2-(3-cyclopropylphenyl)-3,3,3-trifluoro-2-hdyroxy-N-methylpropanamido)propyl)piperidin-1-yl)-N,N-dimethylnicotinamide]: in assay [1], the “LXR alpha IP (nM)” value is on record as “No IP” and the Emax came to 16%. Also, in assay [2], the midpoint of the response, the EC50, lay at 261 nM and the Emax is 49%.
Consider `CN(C)C(=O)c1ccc(N2CCC(CCCN(C)C(=O)[C@](O)(c3ccccc3)C(F)(F)F)CC2)nc1Cl` [Example 1-26, (R)-2-chloro-N,N-dimethyl-6-(4-(3-(3,3,3-trifluoro-2-hydroxy-N-methyl-2-phenylpropanamido)propyl)piperidin-1-yl)nicotinamide], for which, in assay [1], the “LXR alpha IP (nM)” value is “No IP” and the “LXR alpha actiivty at max dose (%)” value was determined as 6%. In assay [2], the “LXR beta actiivty at max dose (%)” value was 51%.
For the compound `CN(C)C(=O)c1ccc(N2CCC(CCCN(C)C(=O)[C@](N)(c3ccccc3)C(F)(F)F)CC2)nc1Cl` [Example 1-29, (R)-6-(4-(3-(2-amino-3,3,3-trifluoro-N-methyl-2-phenylpropanamido)propyl)piperidin-1-yl)-2-chloro-N,N-dimethylnicotinamide], in assay [1], the “LXR alpha IP (nM)” value was “No IP” and the Emax amounted to 8%. For the same compound, in assay [2], a half-maximal response (EC50) required 396 nM and the Emax worked out at 51%.
The corresponding values for `CN(C)C(=O)c1ccc(N2CCC([C@@H]3C[C@H]3CNC(=O)[C@](O)(c3ccccc3)C(F)(F)F)CC2)nc1Cl` [Example 15-14, 2-chloro-N,N-dimethyl-6-(4-((1S,2R)-2-(((R)-3,3,3-trifluoro-2-hydroxy-2-phenylpropanamido)methyl)cyclopropyl)piperidin-1-yl)nicotinamide] are “No IP”, 3%, 264 nM and 69%.
Regarding `CN(C)C(=O)c1ccc(N2CCC(CCCN(C)C(=O)[C@](O)(c3ccccc3)C3CCC3)CC2)nc1Cl` [Example 1-22, (R)-2-chloro-6-(4-(3-(2-cyclobutyl-2-hydroxy-N-methyl-2-phenylaceetamido)propyl)piperidin-1-yl)-N,N-dimethylnicotinamide], in assay [1], the “LXR alpha IP (nM)” value is “No IP” and the Emax is 9%. Besides, in assay [2], the EC50 (usually the concentration at which the effect is half-maximal) is 64 nM and the Emax is 94%.
The corresponding values for `CN(C)C(=O)c1ccc(N2CCC([C@H]3C[C@H]3CN(C)C(=O)[C@](O)(c3cccc(C(F)(F)F)c3)C(F)(F)F)CC2)nc1Cl` [Example 15-7, 2-chloro-N,N-dimethyl-6-(4-((1R,2R)-2-(((R)-3,3,3-trifluoro-2-hydroxy-N-methyl-2-(3-(trifluoromethyl)phenyl)rpropanamido)methyl)cyclopropyl)piperidin-1-yl)nicotinamide] are “No IP”, 11%, 26 nM and 53%.
With `COc1cccc([C@@](O)(C(=O)N(C)CCCC2CCN(c3ccc(C(=O)N(C)CCO)c(Cl)n3)CC2)C(F)(F)F)c1` [Example 2-5, (R)-2-chloro-N-(2-hydroxyethyl)-N-methyl-6-(4-(3-(3,3,3-trifluoro-2-hydroxy-2-(3-methoxyphenyl)-N-methylpropanamido)propyl)piperidin-1-yl)nicotinamide], in assay [1], a half-maximal response (EC50) required 0.705 µM and the Emax stood at 23%. Besides, in assay [2], the EC50 came to 28 nM and the Emax was determined as 63%.
Consider `CN(C)C(=O)c1ccc(N2CCC(CCCNC(=O)[C@](O)(c3cccc(O)c3)C(F)(F)F)CC2)nc1Cl` [Example 5-22, (R)-2-chloro-N,N-dimethyl-6-(4-(3-(3,3,3-trifluoro-2-hydroxy-2-(3-hydroxyphenyl)propanamido)propyl)piperidin-1-yl)nicotinamide], for which, in assay [1], the half-maximal effective concentration (EC50) is 10.3 µM and the Emax amounted to 31%. Moreover, in assay [2], a half-maximal effect (EC50) was put at 1190 nM and the Emax was found to be 101%.
On to `CN(C)C(=O)c1ccc(N2CCC(CCCN(C)C(=O)C(O)(c3ccccc3)C(F)(F)F)CC2)cc1Cl` (single isomer, unassigned) [Example 4-7, 2-chloro-N,N-dimethyl-4-(4-(3-(3,3,3-trifluoro-2-hydroxy-N-methyl-2-phenylpropanamido)propyl)piperidin-1-yl)benzamide], for which, in assay [1], the “LXR alpha IP (nM)” value is recorded as “No IP” and the “LXR alpha actiivty at max dose (%)” value turned out to be 12%. Moreover, in assay [2], a half-maximal response (EC50) required 369 nM and the “LXR beta actiivty at max dose (%)” value is 48%.
Turning to `CN(C)C(=O)c1ccc(N2CCC([C@H]3C[C@H]3CNC(=O)[C@](O)(c3ccccc3)C(F)(F)F)CC2)nc1Cl` [Example 15-9], the concentration giving a half-maximal response (EC50) in assay [1] was found to be 4.22 µM; in assay [2] it was 393 nM. In addition, the Emax in assay [1] amounted to 39%; in assay [2] it was 54%.
Consider `COc1cccc([C@@](O)(C(=O)N[C@H](C)CCC2CCN(c3ccc(C(=O)N(C)C)c(Cl)n3)CC2)C(F)(F)F)c1` [Example 6-2, 2-chloro-N,N-dimethyl-6-(4-((R)-3-((R)-3,3,3-trifluoro-2-hydroxy-2-(3-methoxyphenyl)propanamido)butyl)piperidin-1-yl)nicotinamide], for which the EC50 in assay [1] was found to be 2.44 µM; in assay [2], 98 nM. Moreover, the Emax in assay [1] amounted to 29%; in assay [2], 116%.
As for `CN(C)C(=O)c1ccc(N2CCC(CCCN(C)C(=O)C(C)(C)c3ccccc3)CC2)cc1Cl` [Example 4-5, 2-chloro-4-(4-(3-(N,2-dimethyl-2-phenylpropanamido)propyl)piperidin-1-yl)-N,N-dimethylbenzamide], in assay [1], the “LXR alpha IP (nM)” value was “No IP” and the Emax was 8%. Also, in assay [2], the midpoint of the response, the EC50, lay at 229 nM and the Emax stood at 50%.
Take `CC(C)C(O)(C(=O)NCCCC1CCN(c2ccc(C(=O)N(C)C)c(Cl)c2)CC1)C(F)(F)F` (centres unmarked) [Example 5-2, 2-chloro-4-(4-(3-(2-hydroxy-3-methyl-2-(trifluoromethyl)butanamido)propyl)piperidin-1-yl)-N,N-dimethyl-benzamide]: in assay [1], the “LXR alpha IP (nM)” value is reported as “No IP” and the Emax amounted to 11%. Further, in assay [2], the midpoint of the response, the EC50, lay at 686 nM and the Emax worked out at 80%.
On to `CN(C)C(=O)c1ccc(N2CCC([C@@H]3C[C@H]3CNC(=O)[C@@](O)(c3ccccc3)C(F)(F)F)CC2)cc1Cl` [Example 15-17, 2-chloro-N,N-dimethyl-4-(4-((1S,2R)-2-(((S)-3,3,3-trifluoro-2-hydroxy-2-phenylpropanamido)methyl)cyclopropyl)piperidin-1-yl)benzamide], for which, in assay [1], the “LXR alpha IP (nM)” value is “No IP” and the “LXR alpha actiivty at max dose (%)” value is listed as 0%. Further, in assay [2], the concentration giving a half-maximal response (EC50) stood at 505 nM and the Emax worked out at 79%.
Consider `CN(C)C(=O)c1ccc(N2CCC(CCCN(C)C(=O)[C@]3(c4ccccc4)CC(F)(F)CO3)CC2)nc1Cl` [Example 1-66, (R)-2-chloro-6-(4-(3-(4,4-difluoro-N-methyl-2-phenyltetrahydrofuran-2-carboxamido)propyl)piperidin-1-yl)-N,N-dimethylnicotinamide], for which, in assay [1], the “LXR alpha IP (nM)” value is on record as “No IP” and the Emax came to 7%. In assay [2], it took 138 nM to reach a half-maximal effect (EC50) and the Emax stood at 82%.
